Results from US9814709B2, “Bruton's tyrosine kinase inhibitor” (HEFEI INSTITUTES OF PHYSICAL SCIENCE, CHINESE ACADEMY OF …, priority 2014, dated 2017).

Test system: SD rat adjuvant arthritis (AA) model
Experiment: SD rat adjuvant arthritis (AA) model, arthritis index
Format: in vivo
Procedure: In this example, SD rat adjuvant arthritis (AA) model (purchased from the Experimental Animal Center of Anhui Province) was used. PCI-32765 and methotrexate (MTX) were used as positive control (both purchased from Shanghai Chemexpress). The therapeutic effect of Compound 1 on AA rats was studied via the combination of in vivo and in vitro administration. 10 mg/nal of complete Freund's adjuvant (CFA, purchased from Shanghai Chemexpress) was mixed well, and 0.1 ml of CFA was intracutaneously injected into each rat at right posterior plantar to induce inflammation. The normal group was injected with saline via the same method. On the 17th day, the successful modeling male SD rats were randomly divided into 7 groups with 10 rats in each group, namely the model group, the small/medium/large dose of Compound 1 group (12.5, 25, 50 mg/kg/per administration, intraperitoneal injection, one administration per day for 16 days), the Compound 19 group (25 mg/kg/per administration, intraperitoneal injection, one administration per day for 16 days), the positive control PCI-32765 group (25 mg/kg/per administration, intraperitoneal injection, one administration per day for 16 days), the MTX group (0.5 mg/kg, intragastrical, one administration every 3 days, totally 6 times). The rats in the model group were intraperitoneally injected with the same amount of DMSO solution.

CN(Cc1cnc2nc(N)nc(N)c2n1)c1ccc(C(=O)N[C@@H](CCC(=O)O)C(=O)O)cc1 [MTX, methotrexate, reference compound] was tested, and the “effect on arthritis index of rats compared with the model group” value (0.5 mg/kg intragastrical every 3 days, starting from day 21) was “significantly reduced”.
For C=CC(=O)N1CCC[C@@H](n2nc(-c3ccc(Oc4ccccc4)cc3)c3c(N)ncnc32)C1 [PCI-32765, reference compound], the “effect on arthritis index of rats” value (25 mg/kg intraperitoneal once per day, starting from day 24) was “significantly reduce”.
